# Calls of active or inactive are those of the source. No cut-off for these calls is given here.
# Assays:
# [1] = AUC (0 to t) in Kunming mouse at 10 mg/kg, po measured upto 24 hrs by LC-MS analysis; assay type: ADME, organism-based; design: time < 24 hrs, dose 10 mg/kg, route po; conditions: in vivo
# [2] = AUC (0 to infinity) in Kunming mouse at 10 mg/kg, iv measured upto 24 hrs by LC-MS analysis; assay type: ADME, organism-based; design: dose 10 mg/kg, time < 24 hrs, route iv; conditions: in vivo
# [3] = Volume of distribution in Kunming mouse at 10 mg/kg, po measured upto 24 hrs by LC-MS analysis; assay type: ADME, organism-based; conditions: in vivo
# [4] = system: Acinetobacter baumannii; experiment: Antibacterial activity against Acinetobacter baumannii assessed as bacterial growth inhibition incubated for 24 hrs by broth microdilution method; assay type: functional
# [5] = AUC (0 to infinity) in Kunming mouse at 10 mg/kg, po measured upto 24 hrs by LC-MS analysis; assay type: ADME, organism-based; design: dose 10 mg/kg, time < 24 hrs, route po; conditions: in vivo
# [6] = system: Acinetobacter baumannii; experiment: Antibacterial activity against Acinetobacter baumannii infected in mouse assessed as log reduction in viable bacterial count at 10 mg/kg measured for 12 hrs; assay type: functional
# [7] = Hemolytic activity in human RBC at effective concentration measured after 1 hr by absorbance based assay relative to control; assay type: toxicity, cell-based, Erythrocyte; conditions: red blood cells (erythrocytes), read-out: Activity
# [8] = system: Calf thymus DNA; experiment: Induction of calf thymus DNA cleavage at 0.05 mmol/L incubated for 6 hrs in presence of Cu(NO3)2 by agarose gel electrophoresis method; assay type: nucleic-acid assay; conditions: Bos taurus
# [9] = Half life in Kunming mouse at 10 mg/kg, po measured upto 24 hrs by LC-MS analysis; assay type: ADME, organism-based; conditions: in vivo
# [10] = system: Acinetobacter baumannii; experiment: Antibacterial activity against Acinetobacter baumannii assessed as reduction in metabolic activity incubated for 6 hrs by alamar blue staining based assay; assay type: functional, organism-based
# [11] = MRT (0 to infinity) in Kunming mouse at 10 mg/kg, iv measured upto 24 hrs by LC-MS analysis; assay type: ADME, organism-based; conditions: in vivo
# [12] = Half life in Kunming mouse at 10 mg/kg, iv measured upto 24 hrs by LC-MS analysis; assay type: ADME, organism-based; conditions: in vivo
# [13] = Hemolytic activity in human RBC assessed as cell viability upto 256 ug/ml measured for 1 to 8 hrs by absorbance based assay relative to control; assay type: toxicity, Erythrocyte; conditions: red blood cells (erythrocytes), time 1-8 hrs, dose < 256 µg/ml, read-out: Activity
structure (smiles),measurement,setting,value
OCCN(CCO)c1nccc(-n2cncn2)n1,AUC(0-t) at 24 h,[1],7870 ng·h/mL
same,AUC,[2],2281 ng·h/mL
same,Vd,[3],7.89 L/kg
same,MIC,[4],2 µM
same,AUC,[5],8073 ng·h/mL
same,log(activity),[6],1.6
same,hemolysis at 1 h,[7],< 5%
same,Activity,[8],inactive
same,half-life,[9],4.39 h
same,Activity,[10],Dose-Dependent Effect
same,MRT inf,[11],3.98 h
same,half-life,[12],2.79 h
same,viability,[13],> 99%
